In BindingDB's records for doi:10.1016/j.bmc.2005.09.055 (Uk Centre For Cancer Therapeutics, 2006):
pIC50: −log10 of the molar value.

Tests used:
[1] = biological target: RAC-beta serine/threonine-protein kinase (Homo sapiens, UniProt P31751); experiment: PKB In Vitro Enzyme Assay
[2] = biological target: cAMP-dependent protein kinase catalytic subunit alpha (Bos taurus, UniProt P00517); experiment: PKA In Vitro Enzyme Assay

Sequence of RAC-beta serine/threonine-protein kinase (P31751 whole entry): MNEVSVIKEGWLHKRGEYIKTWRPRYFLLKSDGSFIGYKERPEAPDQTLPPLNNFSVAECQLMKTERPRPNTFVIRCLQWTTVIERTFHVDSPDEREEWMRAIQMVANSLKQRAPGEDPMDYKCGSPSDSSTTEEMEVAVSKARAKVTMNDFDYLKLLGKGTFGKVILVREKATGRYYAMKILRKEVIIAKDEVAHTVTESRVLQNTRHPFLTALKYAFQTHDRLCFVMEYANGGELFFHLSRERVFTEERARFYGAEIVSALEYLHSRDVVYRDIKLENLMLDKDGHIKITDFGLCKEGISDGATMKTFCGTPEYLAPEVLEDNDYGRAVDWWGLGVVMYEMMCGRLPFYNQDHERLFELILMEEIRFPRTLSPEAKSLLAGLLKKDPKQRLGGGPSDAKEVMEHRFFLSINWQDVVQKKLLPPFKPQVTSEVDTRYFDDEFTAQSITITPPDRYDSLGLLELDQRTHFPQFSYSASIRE

| SMILES | pIC50 ([1]; pH 7.2, 22 °C) | pIC50 [1] | further results |
| --- | --- | --- | --- |
| COc1cccc(COCCNCCNS(=O)(=O)c2cccc3cnccc23)c1 [Isoquinoline-5-sulfonic acid (2-(2-(3-methoxybenzyloxy)ethylamino)ethyl)amide] | 5.66 |  |  |
| COc1ccc(COCCNCCNS(=O)(=O)c2cccc3cnccc23)cc1 [N-[2-({2-[(4-methoxyphenyl)methoxy]ethyl}amino)ethyl]isoquinoline-5-sulfonamide] | 5.54 |  |  |
| O=S(=O)(NC[C@H]1CC[C@@H](COCc2ccc(Cl)cc2)N1)c1cccc2cnccc12 [Isoquinoline-5-sulfonic acid (2R*,5S*)-(5-(4-chlorobenzyloxymethyl)pyrrolidin-2-yl-methyl)amide] |  | 5.77 |  |
| O=S(=O)(NC[C@@H]1C[C@H](OCc2ccccc2)CN1)c1cccc2cnccc12 [Isoquinoline-5-sulfonic acid (2S,4S)-(4-(benzyloxy)pyrrolidin-2-yl-methyl)amide] |  | 5.47 |  |
| Cc1cncc2cccc(S(=O)(=O)N[C@@H]3CN[C@H](COCc4ccc(Cl)cc4)C3)c12 [N-[(3S,5S)-5-{[(4-chlorophenyl)methoxy]methyl}pyrrolidin-3-yl]-4-methylisoquinoline-5-sulfonamide] |  | 5.59 | pIC50 [2]: 6.49 |
| O=S(=O)(NCC1CCNCC1)c1cccc2cnccc12 [Isoquinoline-5-sulfonic acid (piperidin-4-ylmethyl)amide] |  | 4.24 |  |
| O=c1[nH]ccc2c(S(=O)(=O)N[C@@H]3CN[C@H](COCc4ccc(Cl)cc4)C3)cccc12 [N-[(3S,5S)-5-{[(4-chlorophenyl)methoxy]methyl}pyrrolidin-3-yl]-1-hydroxyisoquinoline-5-sulfonamide] |  | 6.28 | pIC50 [2]: 5.89 |
| O=S(=O)(NCCNCCOCc1ccc(Cl)c(Cl)c1)c1cccc2cnccc12 [Isoquinoline-5-sulfonic acid (2-(2-(3,4-dichlorobenzyloxy)ethylamino)ethyl)amide] | 6.68 |  |  |
| O=S(=O)(N[C@@H]1CN[C@H](COCc2ccc(Cl)cc2)C1)c1cccc2cnccc12 [N-[(3S,5S)-5-{[(4-chlorophenyl)methoxy]methyl}pyrrolidin-3-yl]isoquinoline-5-sulfonamide] |  | 6.11 | pIC50 [2]: 6.38 |
| O=S(=O)(NCCNCCOCc1cccc(Cl)c1)c1cccc2cnccc12 [Isoquinoline-5-sulfonic acid (2-(2-(3-chlorobenzyloxy)ethylamino)ethyl)amide] | 6.43 |  | pIC50 ([2]; pH 7.2, 22 °C): 6.39 |
| O=S(=O)(NC[C@@H]1CCCN1)c1cccc2cnccc12 [N-[(2S)-pyrrolidin-2-ylmethyl]isoquinoline-5-sulfonamide] |  | 4.41 |  |
| O=S(=O)(c1cccc2cnccc12)N1CCNCC1 [Isoquinoline-5-sulfonic acid piperazin-1 ylamide] | 4.64 |  |  |
| COc1ccccc1COCCNCCNS(=O)(=O)c1cccc2cnccc12 [N-[2-({2-[(2-methoxyphenyl)methoxy]ethyl}amino)ethyl]isoquinoline-5-sulfonamide] | 5.18 |  |  |
| O=S(=O)(N[C@H]1CN[C@H](COCc2ccc(Cl)cc2)C1)c1cccc2cnccc12 [N-[(3R,5S)-5-{[(4-chlorophenyl)methoxy]methyl}pyrrolidin-3-yl]isoquinoline-5-sulfonamide] |  | 5.28 |  |
| O=S(=O)(N[C@H]1CC[C@H](NCc2ccccc2)CC1)c1cccc2cnccc12 [N-[4-(benzylamino)cyclohexyl]isoquinoline-5-sulfonamide] |  | 5.18 |  |
| N[C@H]1CC[C@H](NS(=O)(=O)c2cccc3cnccc23)CC1 [Isoquinoline-5-sulfonic acid trans-(4-aminocyclohexyl)amide] |  | 5.09 | pIC50 [2]: 5.24 |
| O=S(=O)(NC1CCNC1)c1cccc2cnccc12 (stereo unspecified) [Isoquinoline-5-sulfonic acid pyrrolidin-3-ylamide] |  | 5.41 |  |
| O=S(=O)(NC[C@@H]1C[C@@H](OCc2ccc(Cl)cc2)CN1)c1cccc2cnccc12 [Isoquinoline-5-sulfonic acid (2S,4R)-(4-(4-chlorobenzyloxy)pyrrolidin-2-yl-methyl)amide] |  | 5.77 | pIC50 [2]: 6.40 |
| NCCCNS(=O)(=O)c1cccc2cnccc12 [N-(3-aminopropyl)isoquinoline-5-sulfonamide] | 5.32 |  |  |
| O=S(=O)(NCCNCCOCc1ccccc1Cl)c1cccc2cnccc12 [N-[2-({2-[(2-chlorophenyl)methoxy]ethyl}amino)ethyl]isoquinoline-5-sulfonamide] | 6.02 |  | pIC50 ([2]; pH 7.2, 22 °C): 6.00 |
| CNCCNS(=O)(=O)c1cccc2cnccc12 [N-[2-(methylamino)ethyl]isoquinoline-5-sulfonamide] |  | 5.12 |  |
| Cc1ccc(COCCNCCNS(=O)(=O)c2cccc3cnccc23)cc1 [Isoquinoline-5-sulfonic acid (2-(2-(4-methylbenzyloxy)ethylamino)ethyl)amide] | 5.82 |  |  |
| Cc1ccccc1COCCNCCNS(=O)(=O)c1cccc2cnccc12 [N-[2-({2-[(2-methylphenyl)methoxy]ethyl}amino)ethyl]isoquinoline-5-sulfonamide] | 6.24 |  |  |
| O=S(=O)(NC1CCNCC1)c1cccc2cnccc12 [N-(piperidin-4-yl)isoquinoline-5-sulfonamide] | 5.06 |  | pIC50 ([2]; pH 7.2, 22 °C): 5.41 |
| Cc1cccc(COCCNCCNS(=O)(=O)c2cccc3cnccc23)c1 [N-[2-({2-[(3-methylphenyl)methoxy]ethyl}amino)ethyl]isoquinoline-5-sulfonamide] | 5.96 |  |  |
| O=S(=O)(NCCNCCOCc1ccccc1)c1cccc2cnccc12 [N-(2-{[2-(benzyloxy)ethyl]amino}ethyl)isoquinoline-5-sulfonamide] | 5.93 |  |  |
| O=S(=O)(NC[C@@H]1C[C@H](OCc2ccc(Cl)cc2)CN1)c1cccc2cnccc12 [N-{[(2S,4S)-4-[(4-chlorophenyl)methoxy]pyrrolidin-2-yl]methyl}isoquinoline-5-sulfonamide] |  | 6.32 | pIC50 [2]: 6.77 |
